What was measured:
[1] = Human hepatocyte stability; assay type: in vitro ADME; details: cryopreserved hepatocytes, mixed human hepatocyte suspension, 37° C.; for hepatocyte CLint: read-out: intrinsic clearance (CLint) in human hepatocytes
Method: (§1) The intrinsic clearance (CLint) and half-life of (S)-1-((2-(trifluoromethyl)phenyl)sulfonyl)piperidine-3-carboxylic acid and (R)-1-((2-(trifluoromethyl)phenyl)sulfonyl)piperidine-3-carboxylic acid were measured in a hepatocyte suspension of cryopreserved male C57BL6 mouse hepatocytes or a mixed hepatocyte suspension of cryopreserved human hepatocytes. Briefly, the compounds were incubated with hepatocyte suspensions at 37° C. over a time course and the remaining compound at each time point was assessed by mass spectrometry (UPLC-MS/MS). CLint in mouse hepatocytes was <3 μl/min/10^6 cells and in human hepatocytes was <3 μl/min/10^6 cells for both compounds.

[2] = biological target: T1, CYP 3A4 (Homo sapiens, UniProt P08684); assay: CYP inhibition, E. coli CYPEX membranes with probe substrates; assay type: in vitro ADME
T1 construct: purchased CYPEX; host or cells: E. coli
T1 sequence (P08684 whole entry): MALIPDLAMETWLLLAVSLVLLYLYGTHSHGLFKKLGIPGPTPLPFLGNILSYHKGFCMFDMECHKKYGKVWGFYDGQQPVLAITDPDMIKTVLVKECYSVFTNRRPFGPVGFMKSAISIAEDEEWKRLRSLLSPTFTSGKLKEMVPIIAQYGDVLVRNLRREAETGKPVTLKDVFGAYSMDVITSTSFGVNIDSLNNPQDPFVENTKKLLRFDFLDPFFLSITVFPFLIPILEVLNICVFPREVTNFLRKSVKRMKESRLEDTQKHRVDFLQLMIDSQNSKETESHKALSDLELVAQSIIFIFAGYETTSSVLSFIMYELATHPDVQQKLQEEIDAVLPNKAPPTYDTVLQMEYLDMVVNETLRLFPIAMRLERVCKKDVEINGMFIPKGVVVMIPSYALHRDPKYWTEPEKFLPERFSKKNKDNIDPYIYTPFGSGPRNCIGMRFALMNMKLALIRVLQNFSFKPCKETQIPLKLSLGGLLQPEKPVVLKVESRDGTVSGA
Method: (§2) Using E. coli CYPEX membranes in combination with specific probe substrates, the inhibition of individual CYPs by (S)-1-((2-(trifluoromethyl)phenyl)sulfonyl)piperidine-3-carboxylic acid and (R)-1-((2-(trifluoromethyl)phenyl)sulfonyl)piperidine-3-carboxylic acid was assessed (see Weaver et al., 2003, Drug Metab Dispos 31:7, 955-966).

[3] = biological target: T2, CYP 1A2 (Homo sapiens, UniProt P05177); assay: as above; assay type: in vitro ADME
T2 construct: purchased CYPEX; host or cells: E. coli
T2 sequence (P05177 1-516): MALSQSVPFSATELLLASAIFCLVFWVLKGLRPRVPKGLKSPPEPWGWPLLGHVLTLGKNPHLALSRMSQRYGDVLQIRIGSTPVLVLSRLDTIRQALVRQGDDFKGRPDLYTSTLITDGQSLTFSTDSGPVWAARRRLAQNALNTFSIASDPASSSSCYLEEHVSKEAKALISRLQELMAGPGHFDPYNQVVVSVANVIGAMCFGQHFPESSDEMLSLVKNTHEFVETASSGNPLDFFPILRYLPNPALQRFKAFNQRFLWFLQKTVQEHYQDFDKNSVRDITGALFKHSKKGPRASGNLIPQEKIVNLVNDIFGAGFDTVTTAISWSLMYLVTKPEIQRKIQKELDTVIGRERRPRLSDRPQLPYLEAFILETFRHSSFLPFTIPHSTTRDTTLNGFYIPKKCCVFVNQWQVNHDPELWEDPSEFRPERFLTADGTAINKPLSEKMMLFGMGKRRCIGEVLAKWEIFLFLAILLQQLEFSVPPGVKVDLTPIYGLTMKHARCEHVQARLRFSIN
Method: as §2

[4] = Mouse hepatocyte stability; assay type: in vitro ADME; details: male, C57BL6, cryopreserved hepatocytes in suspension, 37° C.; for hepatocyte CLint: read-out: intrinsic clearance (CLint) in mouse hepatocytes
Method: as §1

[5] = Pharmacokinetics in mice (blood, UPLC-MS/MS); assay type: in vivo, mouse; details: for Cmax / AUC / AUC(0-inf) / half-life / clearance / Vd: mouse, whole blood, male C57Bl/6 mice, blood; for Cmax: po, orally 10 mg/kg by gavage; for AUC / AUC(0-inf) / half-life / clearance / Vd: intravenously 2 mg/kg or orally 10 mg/kg; for half-life: read-out: Half-life in blood (t1/2) (converted); for clearance: read-out: Observed clearance; for Vd: read-out: Volume of distribution (Vz)
Method: (§3) (S)-1-((2-(trifluoromethyl)phenyl)sulfonyl)piperidine-3-carboxylic acid was administered to male C57BI/6 mice intravenously (2 mg/kg) or orally (10 mg/kg) by gavage. Whole blood diluted with water was prepared from these dosed animals over a time course up to 24 hours post dose to allow blood concentrations of drug to be measured by UPLC-MS/MS.
as §3, with “(R)-1-((2-(trifluoromethyl)phenyl)sulfonyl)piperidine-3-carboxylic” for “(S)-1-((2-(trifluoromethyl)phenyl)sulfonyl)piperidine-3-carboxylic”

[6] = biological target: T3, human Siiyama A1AT (Homo sapiens, UniProt P01009, S77F); assay: A1AT cell secretion assay using HEK-Siiyama cells (ELISA); assay type: cell-based; details: 1 or 10 μM, 48 h
T3 construct: expressed in transfected cells; host or cells: HEK-Siiyama cells (HEK-EBNA with Siiyama A1AT plasmid)
T3 sequence (P01009 25-418 S77F): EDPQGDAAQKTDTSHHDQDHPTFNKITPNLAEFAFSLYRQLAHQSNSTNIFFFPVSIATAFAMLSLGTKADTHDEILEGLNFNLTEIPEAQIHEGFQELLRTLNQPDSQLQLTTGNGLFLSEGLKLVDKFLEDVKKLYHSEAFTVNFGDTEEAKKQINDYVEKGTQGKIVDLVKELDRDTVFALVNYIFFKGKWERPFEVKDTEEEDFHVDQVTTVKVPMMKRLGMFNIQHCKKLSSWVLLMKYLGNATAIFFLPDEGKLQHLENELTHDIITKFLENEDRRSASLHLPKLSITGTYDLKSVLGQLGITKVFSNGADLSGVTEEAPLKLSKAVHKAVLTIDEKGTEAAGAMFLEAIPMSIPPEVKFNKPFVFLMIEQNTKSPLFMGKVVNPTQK
Method: HEK-Siiyama cells, a human embryonic kidney cell line stably transfected with the Siiyama A1AT gene, were plated into 96 well plates (3.0×10^5 cells/ml with 200 μl of media/well) overnight at 37° C. in a humidified atmosphere containing 5% CO2. Following incubation cells were washed with 200 μl serum-free media three times and media was replaced with serum-free media containing vehicle, 10 μM suberanilohydroxamic acid (SAHA), (S)-1-((2-(trifluoromethyl)phenyl)sulfonyl)piperidine-3-carboxylic acid (at 1 or 10 μM) or (R)-1-((2-(trifluoromethyl)phenyl)sulfonyl)piperidine-3-carboxylic acid (at 1 or 10 μM) in replicates of eight for 48 h in a 37° C. incubator in a final volume of 200 μl. At the end of the incubation step the supernatants were removed from the wells, centrifuged at 1000×g at 4° C. for 10 min and were assayed for human A1AT levels by ELISA (Human Serpin A1/α1-antitrypsin duo set ELISA, R& D Systems, DY1268) per manufacturer's instructions.
Briefly, a 96 well plate was coated with human A1AT capture antibody overnight at room temperature (1:180 dilution from stock, 100 μl final volume/well). The capture antibody was then removed and wells washed three times with 300 μl wash buffer (0.05% Tween 20 in PBS) and then 200 μl reagent diluent (25% Tween 20 in PBS) was incubated in each well for 1 h at room temperature. Diluted samples, standards (125, 250, 500, 1000, 2000, 4000 and 8000 pg/ml A1AT) or blanks were then added to each well in duplicate and the plates were covered with a plate sealer and left at room temperature for 2 h. […] After which, 50 μl stop solution (2M H2SO4) was added and optical density (OD) of each well was read at 450 nm with 570 nm blank subtracted from each well using a microplate reader. A 4 parameter logistic curve was constructed using GraphPad Prism 7 and A1AT concentrations were determined in each sample by interpolation from a standard curve and multiplying by the appropriate dilution factor.
The amount of human A1AT secreted from transfected HEK-EBNA cells into the media was measured by ELISA. […]

Row | SMILES | half-life [1] [h] | hepatocyte CLint [1] [µL/min/1e6 cells] | IC50 [2] [µM] | IC50 [3] [µM] | half-life [4] [h] | hepatocyte CLint [4] [µL/min/1e6 cells] | AUC lower than S enantiomer ([5]; mice, Examples 7 and 8) [fold] | t½ shorter than S enantiomer ([5]; mice, Examples 7 and 8) [fold] | Cmax [5] [ng/mL] | AUC [5] [ng·h/mL] | AUC(0-inf) [5] [ng·h/mL] | half-life [5] [h] | clearance [5] [mL/min/kg] | Vd [5] [L/kg] | secretion of human Siiyama A1AT into cell supernatant [6]
1 | O=C(O)[C@@H]1CCCN(S(=O)(=O)c2ccccc2C(F)(F)F)C1 [(R)-1-((2-(Trifluoromethyl)phenyl)sulfonyl)piperidine-3-carboxylic acid] | > 7.67 | < 3 | > 50 | > 50 | > 7.67 | < 3 | 2.2 | 2.2 | 15600 | 24200 | 24700 | 0.54 | 8.2 | 0.38 | does not stimulate secretion of human Siiyama A1AT
2 | O=C(O)[C@H]1CCCN(S(=O)(=O)c2ccccc2C(F)(F)F)C1 [(S)-1-((2-(Trifluoromethyl)phenyl)sulfonyl)piperidine-3-carboxylic acid] | > 7.67 | < 3 | > 50 | > 50 | > 7.67 | < 3 |  |  | 33500 | 54200 | 54400 | 1.2 | 4.7 | 0.49 | does not stimulate secretion of human Siiyama A1AT

— US12673050B2, “Compositions and their use for the treatment of A1-antitrypsin deficiency” (Centessa Pharmaceuticals (UK) Limited, priority 2021, dated 2026)
